According to PubChem BioAssay AID1963856 (Molecular Pharmacology Branch, DTP, NCI, 2024):

System: LG0567-F671-PDC KRAS tumor spheroid viability
Assay: Anticancer human tumor LG0567-F671-PDC patient-derived lung adenocarcinoma cell line growth inhibition [KRAS2]
Settings: spheroids with HUVEC and MSC; for IC50: curve of first compound; for viability, T/C: stronger effect = lower value
In short: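 KRAS-mutant tumor cells were grown as spheroids with HUVEC endothelial cells and human MSCs as stroma. Targeted agents were tested alone and with KRAS pathway inhibitors. Doses started at or near clinical Cmax, or 10 microM, descending half-log.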

[1] = second compound 0.1 µM, first compound 0.0316 µM
[2] = second compound 0.1 µM, first compound 0.1 µM
[3] = second compound 0.1 µM, first compound 0.316 µM
[4] = second compound 0.1 µM, first compound 1 µM
[5] = second compound 0.1 µM, first compound 3.16 µM
[6] = second compound 0.1 µM, first compound 10 µM
[7] = second compound 0.316 µM, first compound 0.0316 µM
[8] = second compound 0.316 µM, first compound 0.1 µM
[9] = second compound 0.316 µM, first compound 0.316 µM
[10] = second compound 0.316 µM, first compound 1 µM
[11] = second compound 0.316 µM, first compound 3.16 µM
[12] = second compound 0.316 µM, first compound 10 µM
[13] = second compound 1 µM, first compound 0.0316 µM
[14] = second compound 1 µM, first compound 0.1 µM
[15] = second compound 1 µM, first compound 0.316 µM
[16] = second compound 1 µM, first compound 1 µM
[17] = second compound 1 µM, first compound 3.16 µM
[18] = second compound 1 µM, first compound 10 µM
[19] = second compound 3.16 µM, first compound 0.0316 µM
[20] = second compound 3.16 µM, first compound 0.1 µM
[21] = second compound 3.16 µM, first compound 0.316 µM
[22] = second compound 3.16 µM, first compound 1 µM
[23] = second compound 3.16 µM, first compound 3.16 µM
[24] = second compound 3.16 µM, first compound 10 µM
[25] = second compound 10 µM, first compound 0.0316 µM
[26] = second compound 10 µM, first compound 0.1 µM
[27] = second compound 10 µM, first compound 0.316 µM
[28] = second compound 10 µM, first compound 1 µM
[29] = second compound 10 µM, first compound 3.16 µM
[30] = second compound 10 µM, first compound 10 µM
[31] = second compound 0.1 µM, first compound 0.00316 µM
[32] = second compound 0.1 µM, first compound 0.01 µM
[33] = second compound 0.316 µM, first compound 0.00316 µM
[34] = second compound 0.316 µM, first compound 0.01 µM
[35] = second compound 1 µM, first compound 0.00316 µM
[36] = second compound 1 µM, first compound 0.01 µM
[37] = second compound 3.16 µM, first compound 0.00316 µM
[38] = second compound 3.16 µM, first compound 0.01 µM
[39] = second compound 10 µM, first compound 0.00316 µM
[40] = second compound 10 µM, first compound 0.01 µM
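Note: drug exposure lasted seven days after spheroids formed for three days.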
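Throughout, for viability, T/C: 100% = DMSO vehicle control viability.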

## CCNC(=O)CC1N=C(c2ccc(Cl)cc2)c2cc(OC)ccc2-n2c(C)nnc21 (stereo unspecified) + C=CC(=O)N1CCN(c2nc(=O)n(-c3c(C)ccnc3C(C)C)c3nc(-c4c(O)cccc4F)c(F)cc23)C(C)C1
Second compound 0.1 µM
  IC50: < 31.6 nM
Second compound 0.316 µM
  IC50: < 31.6 nM
Second compound 1 µM
  IC50: < 31.6 nM
Second compound 3.16 µM
  IC50: < 31.6 nM
Second compound 10 µM
  IC50: < 31.6 nM
[1]
  viability, T/C: 35%
[2]
  viability, T/C: 33%
[3]
  viability, T/C: 24.3%
[4]
  viability, T/C: 18.5%
[5]
  viability, T/C: 15.2%
[6]
  viability, T/C: 12.9%
[7]
  viability, T/C: 28.9%
[8]
  viability, T/C: 34.7%
[9]
  viability, T/C: 25.1%
[10]
  viability, T/C: 18.7%
[11]
  viability, T/C: 15.3%
[12]
  viability, T/C: 13.2%
[13]
  viability, T/C: 32.7%
[14]
  viability, T/C: 31.1%
[15]
  viability, T/C: 22%
[16]
  viability, T/C: 16%
[17]
  viability, T/C: 15.8%
[18]
  viability, T/C: 12.4%
[19]
  viability, T/C: 25.9%
[20]
  viability, T/C: 30.1%
[21]
  viability, T/C: 20.9%
[22]
  viability, T/C: 16.3%
[23]
  viability, T/C: 12.8%
[24]
  viability, T/C: 10.2%
[25]
  viability, T/C: 24.3%
[26]
  viability, T/C: 26.2%
[27]
  viability, T/C: 17%
[28]
  viability, T/C: 10.3%
[29]
  viability, T/C: 9.13%
[30]
  viability, T/C: 9.1%

## COc1cc(OC)cc(N(CCNC(C)C)c2ccc3ncc(-c4cnn(C)c4)nc3c2)c1
Compound 0.316 µM
  viability, T/C: 92.2% [middle of 5 runs]

## CCN1CCN(Cc2ccc(Nc3ncc(F)c(-c4cc(F)c5nc(C)n(C(C)C)c5c4)n3)nc2)CC1 + CNCc1ccccc1-c1csc(C(C)Nc2nc(C)nc3cc(OC)c(OC)cc23)c1
Second compound 0.1 µM
  IC50: 493 nM
Second compound 0.316 µM
  IC50: 68.2 nM
Second compound 1 µM
  IC50: 6.43 nM
Second compound 3.16 µM
  IC50: 13.7 nM
Second compound 10 µM
  IC50: < 3.16 nM
[31]
  viability, T/C: 78%
[32]
  viability, T/C: 76.3%
[1]
  viability, T/C: 65%
[2]
  viability, T/C: 62.6%
[3]
  viability, T/C: 50.1%
[4]
  viability, T/C: 47.3%
[33]
  viability, T/C: 77.2%
[34]
  viability, T/C: 60.5%
[7]
  viability, T/C: 51.1%
[8]
  viability, T/C: 54.8%
[9]
  viability, T/C: 43.8%
[10]
  viability, T/C: 42%
[35]
  viability, T/C: 52%
[36]
  viability, T/C: 50.5%
[13]
  viability, T/C: 44.3%
[14]
  viability, T/C: 37.8%
[15]
  viability, T/C: 39.9%
[16]
  viability, T/C: 33.9%
[37]
  viability, T/C: 60.6%
[38]
  viability, T/C: 74.2%
[19]
  viability, T/C: 0.63%
[20]
  viability, T/C: 11.6%
[21]
  viability, T/C: 3.01%
[22]
  viability, T/C: 0.17%
[39]
  viability, T/C: 0.18%
[40]
  viability, T/C: 0.15%
[25]
  viability, T/C: 0.13%
[26]
  viability, T/C: 0.12%
[27]
  viability, T/C: 0.13%
[28]
  viability, T/C: 0.18%

## CCN1CCN(Cc2ccc(Nc3ncc(F)c(-c4cc(F)c5nc(C)n(C(C)C)c5c4)n3)nc2)CC1 + CC1OCC2(CCN(c3cnc(Sc4ccnc(N)c4Cl)c(N)n3)CC2)C1N
Second compound 0.1 µM
  IC50: 6.46 nM
Second compound 0.316 µM
  IC50: < 3.16 nM
Second compound 1 µM
  IC50: < 3.16 nM
Second compound 3.16 µM
  IC50: < 3.16 nM
Second compound 10 µM
  IC50: < 3.16 nM
[31]
  viability, T/C: 54.8%
[32]
  viability, T/C: 48.2%
[1]
  viability, T/C: 41.1%
[2]
  viability, T/C: 41.2%
[3]
  viability, T/C: 39.9%
[4]
  viability, T/C: 39.1%
[33]
  viability, T/C: 35.5%
[34]
  viability, T/C: 30.2%
[7]
  viability, T/C: 27.7%
[8]
  viability, T/C: 25.5%
[9]
  viability, T/C: 23%
[10]
  viability, T/C: 24.2%
[35]
  viability, T/C: 26%
[36]
  viability, T/C: 23.1%
[13]
  viability, T/C: 20.7%
[14]
  viability, T/C: 17.7%
[15]
  viability, T/C: 16.5%
[16]
  viability, T/C: 20.5%
[37]
  viability, T/C: 15.2%
[38]
  viability, T/C: 16.7%
[19]
  viability, T/C: 16.1%
[20]
  viability, T/C: 10.6%
[21]
  viability, T/C: 10.9%
[22]
  viability, T/C: 14.9%
[39]
  viability, T/C: 10.4%
[40]
  viability, T/C: 7.73%
[25]
  viability, T/C: 6.15%
[26]
  viability, T/C: 6.13%
[27]
  viability, T/C: 7.13%
[28]
  viability, T/C: 15.3%

## CC(C)n1nc(-c2ccc3oc(N)nc3c2)c2c(N)ncnc21 + C=CC(=O)N1CCN(c2nc(OCC3CCCN3C)nc3c2CCN(c2cccc4cccc(C)c24)C3)CC1CC#N
Second compound 0.0316 µM
  IC50: < 0.316 nM
Second compound 0.1 µM
  IC50: < 0.316 nM
Second compound 0.316 µM
  IC50: < 0.316 nM
Second compound 1 µM
  IC50: < 0.316 nM
Second compound 3.16 µM
  IC50: < 0.316 nM
Second compound 0.0316 µM, first compound 0.000316 µM
  viability, T/C: 33.2%
Second compound 0.0316 µM, first compound 0.001 µM
  viability, T/C: 28.2%
Second compound 0.0316 µM, first compound 0.00316 µM
  viability, T/C: 20.5%
Second compound 0.0316 µM, first compound 0.01 µM
  viability, T/C: 19.3%
Second compound 0.0316 µM, first compound 0.0316 µM
  viability, T/C: 13.4%
Second compound 0.0316 µM, first compound 0.1 µM
  viability, T/C: 12.8%
Second compound 0.1 µM, first compound 0.000316 µM
  viability, T/C: 29.1%
Second compound 0.1 µM, first compound 0.001 µM
  viability, T/C: 27%
[31]
  viability, T/C: 18.3%
[32]
  viability, T/C: 15.4%
[1]
  viability, T/C: 13.7%
[2]
  viability, T/C: 10.6%
Second compound 0.316 µM, first compound 0.000316 µM
  viability, T/C: 32.7%
Second compound 0.316 µM, first compound 0.001 µM
  viability, T/C: 33.5%
[33]
  viability, T/C: 21.2%
[34]
  viability, T/C: 17.7%
[7]
  viability, T/C: 11.1%
[8]
  viability, T/C: 10.1%
Second compound 1 µM, first compound 0.000316 µM
  viability, T/C: 37.6%
Second compound 1 µM, first compound 0.001 µM
  viability, T/C: 31.6%
[35]
  viability, T/C: 25.6%
[36]
  viability, T/C: 14.4%
[13]
  viability, T/C: 12.5%
[14]
  viability, T/C: 9.9%
Second compound 3.16 µM, first compound 0.000316 µM
  viability, T/C: 35%
Second compound 3.16 µM, first compound 0.001 µM
  viability, T/C: 11.4%
[37]
  viability, T/C: 14.5%
[38]
  viability, T/C: 5.93%
[19]
  viability, T/C: 5.55%
[20]
  viability, T/C: 2.27%

## CC(C)NCC(C(=O)N1CCN(c2ncnc3c2C(C)CC3O)CC1)c1ccc(Cl)cc1 (stereo unspecified) + CNCc1ccccc1-c1csc(C(C)Nc2nc(C)nc3cc(OC)c(OC)cc23)c1
Second compound 0.1 µM
  IC50: > 10000 nM
Second compound 0.316 µM
  IC50: > 10000 nM
Second compound 1 µM
  IC50: 675 nM
Second compound 3.16 µM
  IC50: < 31.6 nM
Second compound 10 µM
  IC50: < 31.6 nM
[1]
  viability, T/C: 78.9%
[2]
  viability, T/C: 72.3%
[3]
  viability, T/C: 53%
[4]
  viability, T/C: 62%
[5]
  viability, T/C: 70.9%
[6]
  viability, T/C: 61.6%
[7]
  viability, T/C: 68.2%
[8]
  viability, T/C: 54.6%
[9]
  viability, T/C: 46.7%
[10]
  viability, T/C: 54.5%
[11]
  viability, T/C: 59.1%
[12]
  viability, T/C: 54.6%
[13]
  viability, T/C: 60.4%
[14]
  viability, T/C: 63.5%
[15]
  viability, T/C: 52.3%
[16]
  viability, T/C: 42.8%
[17]
  viability, T/C: 48.3%
[18]
  viability, T/C: 42.2%
[19]
  viability, T/C: 0.25%
[20]
  viability, T/C: 0.18%
[21]
  viability, T/C: 0.11%
[22]
  viability, T/C: 1.4%
[23]
  viability, T/C: 0.12%
[24]
  viability, T/C: 0.97%
[25]
  viability, T/C: 0.84%
[26]
  viability, T/C: 0.44%
[27]
  viability, T/C: 0.13%
[28]
  viability, T/C: 0.12%
[29]
  viability, T/C: 2.26%
[30]
  viability, T/C: 0.6%
